In general, CC50 refers to the concentration that lowers cell viability or growth by half. Lower therefore signals greater toxicity to the cells. The EC50 is the concentration needed to bring the measured effect to its halfway point.

Assay [1] concerns HCT116 MTAP-deleted cells. Nature of the assay: Cell viability assay (CellTiter-Glo, 7 days), HCT116 MTAP-deleted. To be noted: Homo sapiens, HCT-116, 168 h.
The test system of assay [2] is SDMA signal (PRMT5 inhibition) in HCT116 MTAP-deleted cells. Nature of the assay: Symmetric di-methyl arginine image-based high content screen assay (SDMA assay), HCT116 MTAP-deleted. It counts as cell-based. The settings on record: SDMA assay; for EC50: Homo sapiens, HCT-116, 72 h, 3 days of treatment, cell line not given, taken as HCT116 MTAP-deleted, read-out: EC50 (SDMA assay); for EC50 selectivity (SDMA assay): taken as HCT116 WT vs MTAP-deleted. Summed up: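 HCT116 MTAP-deleted cells treated with compound until Day 3, then formalin-fixed, permeabilized and immunostained for SDMA, with DAPI nuclear counterstain. Imaged by high-content microscopy; SDMA read-out is mean Alexa 488 intensity per DAPI-defined cell, reflecting PRMT5 inhibition.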

Some results are limits rather than exact numbers.

Compound `CC(=O)N(C)N(Cc1cc2cc(C(F)(F)F)ccn2n1)C(=O)c1ccc2nc(N)c3cnn(C)c3c2c1` [Example 402, N′-acetyl-4-amino-N′,1-dimethyl-N-((5-(trifluoromethyl)pyrazolo[1,5-a]pyridin-2-yl)methyl)-1H-pyrazolo[4,3-c]quinoline-8-carbohydrazide] returned a CC50 in assay [1] of under 100 nM. Further, in assay [2], the EC50 was under 1 nM and the “EC50 selectivity (SDMA assay)” value amounted to 311.

With `CC(=O)N(C)N(Cc1cc2ccc(Cl)cn2n1)C(=O)c1ccc2nc(N)c3cnn(C)c3c2c1` [Example 403, N′-acetyl-4-amino-N-((6-chloropyrazolo[1,5-a]pyridin-2-yl)methyl)-N′,1-dimethyl-1H-pyrazolo[4,3-c]quinoline-8-carbohydrazide], the CC50 in assay [1] was under 100 nM. Besides, in assay [2], the EC50 was under 1 nM and the “EC50 selectivity (SDMA assay)” value stood at 476.

For the compound `CC(NN(Cc1ccc(C(F)(F)F)cn1)C(=O)c1ccc2nc(N)c3cnn(C)c3c2c1)C(F)(F)F` (stereo not drawn) [Example 405, 4-amino-1-methyl-N-((5-(trifluoromethyl)pyridin-2-yl)methyl)-N′-(1,1,1-trifluoropropan-2-yl)-1H-pyrazolo[4,3-c]quinoline-8-carbohydrazide], the CC50 in assay [1] was under 100 nM. Also, in assay [2], the EC50 is under 1 nM and the “EC50 selectivity (SDMA assay)” value amounted to 154.

On to `CC(=O)N(C)N(Cc1ccc(C#N)cc1Cl)C(=O)c1ccc2nc(N)c3cnn(C)c3c2c1` [Example 406, N′-acetyl-4-amino-N-(2-chloro-4-cyanobenzyl)-N′,1-dimethyl-1H-pyrazolo[4,3-c]quinoline-8-carbohydrazide], for which, in assay [1], the CC50 is under 100 nM. In addition, in assay [2], the EC50 is under 1 nM and the “EC50 selectivity (SDMA assay)” value was found to be 212.

In the case of `CC(=O)N(C)N(Cc1c(F)cc(F)cc1F)C(=O)c1ccc2nc(N)c3cnn(C)c3c2c1` [Example 413, N′-acetyl-4-amino-N′,1-dimethyl-N-(2,4,6-trifluorobenzyl)-1H-pyrazolo[4,3-c]quinoline-8-carbohydrazide], in assay [1], the cytotoxic concentration (CC50) was under 100 nM. In assay [2], the EC50 was under 1 nM and the “EC50 selectivity (SDMA assay)” value was 497.

`CC(=O)N(C)N(Cc1c(F)cc(C(F)(F)F)cc1F)C(=O)c1ccc2nc(N)c3cnn(C)c3c2c1` [Example 415, N′-acetyl-4-amino-N-(2,6-difluoro-4-(trifluoromethyl)benzyl)-N′,1-dimethyl-1H-pyrazolo[4,3-c]quinoline-8-carbohydrazide] gave a CC50 in assay [1] of under 100 nM. In assay [2], the EC50 was under 1 nM and the “EC50 selectivity (SDMA assay)” value worked out at 26.

As for `CC(=O)N(C)N(Cc1ccc(C(F)(F)F)nc1C)C(=O)c1ccc2nc(N)c3cnn(C)c3c2c1` [Example 416, N′-acetyl-4-amino-N′,1-dimethyl-N-((2-methyl-6-(trifluoromethyl)pyridin-3-yl)methyl)-1H-pyrazolo[4,3-c]quinoline-8-carbohydrazide], the CC50 in assay [1] is under 100 nM. In assay [2], the EC50 lay within 1 to 5 nM and the “EC50 selectivity (SDMA assay)” value was determined as 133.

`CC(=O)N(C)N(Cc1cc2c(C(F)(F)F)cccc2s1)C(=O)c1ccc2nc(N)c3cnn(C)c3c2c1` [Example 418, N′-acetyl-4-amino-N′,1-dimethyl-N-((4-(trifluoromethyl)benzo[b]thiophen-2-yl)methyl)-1H-pyrazolo[4,3-c]quinoline-8-carbohydrazide] returned a CC50 in assay [1] of under 100 nM. In assay [2], the EC50 is 1 to 5 nM and the “EC50 selectivity (SDMA assay)” value turned out to be 114.

`CC(=O)N(C)N(Cc1cc2cccc(C(F)(F)F)c2s1)C(=O)c1ccc2nc(N)c3cnn(C)c3c2c1` [Example 419, N′-acetyl-4-amino-N′,1-dimethyl-N-((7-(trifluoromethyl)benzo[b]thiophen-2-yl)methyl)-1H-pyrazolo[4,3-c]quinoline-8-carbohydrazide]: the CC50 in assay [1] is under 100 nM. Also, in assay [2], the EC50 lay in the range of 1 to 5 nM and the “EC50 selectivity (SDMA assay)” value turned out to be 118.

In assay [1], `Cn1ncc2c(N)nc3ccc(C(=O)N(Cc4nc5cc(C(F)(F)F)ccc5n4C)N4CCCC4=O)cc3c21` [Example 420, 4-amino-1-methyl-N-((1-methyl-5-(trifluoromethyl)-1H-benzo[d]imidazol-2-yl)methyl)-N-(2-oxopyrrolidin-1-yl)-1H-pyrazolo[4,3-c]quinoline-8-carboxamide] came in with a CC50 of under 100 nM. Further, in assay [2], the EC50 was under 1 nM and the “EC50 selectivity (SDMA assay)” value is on record as 87.

In the case of `CC(=O)N(C)N(Cc1cnc(-c2ccccc2)n1C)C(=O)c1cc2c(cc1F)nc(N)c1cnn(C)c12` [Example 421, N′-acetyl-4-amino-7-fluoro-N′,1-dimethyl-N-((1-methyl-2-phenyl-1H-imidazol-5-yl)methyl)-1H-pyrazolo[4,3-c]quinoline-8-carbohydrazide], the CC50 in assay [1] is under 100 nM. Besides, in assay [2], the EC50 lay within 1 to 5 nM and the “EC50 selectivity (SDMA assay)” value is 73.

On to `CC(=O)N(C)N(Cc1nc2cc(C(F)(F)F)ccc2n1C)C(=O)c1ccc2nc(N)c3cnn(C)c3c2c1` [Example 423, N′-acetyl-4-amino-N′,1-dimethyl-N-((1-methyl-5-(trifluoromethyl)-1H-benzo[d]imidazol-2-yl)methyl)-1H-pyrazolo[4,3-c]quinoline-8-carbohydrazide], for which, in assay [1], the CC50 is under 100 nM. Besides, in assay [2], the EC50 is 1 to 5 nM and the “EC50 selectivity (SDMA assay)” value was 149.

For the compound `CC(=O)N(C)N(Cc1ccn(-c2ccc(F)cc2)n1)C(=O)c1ccc2nc(N)c3cnn(C)c3c2c1` [Example 432, N′-acetyl-4-amino-N-((1-(4-fluorophenyl)-1H-pyrazol-3-yl)methyl)-N′,1-dimethyl-1H-pyrazolo[4,3-c]quinoline-8-carbohydrazide], the CC50 in assay [1] is under 100 nM. Also, in assay [2], the concentration for a half-maximal effect (EC50) was 1 to 5 nM and the “EC50 selectivity (SDMA assay)” value was determined as 297.

In turn, `CN(C(=O)C1CC1)N(Cc1nc2cc(C(F)(F)F)ccc2n1C)C(=O)c1ccc2nc(N)c3cnn(C)c3c2c1` [Example 437, 4-amino-N′-(cyclopropanecarbonyl)-N′,1-dimethyl-N-((1-methyl-5-(trifluoromethyl)-1H-benzo[d]imidazol-2-yl)methyl)-1H-pyrazolo[4,3-c]quinoline-8-carbohydrazide] had a CC50 in assay [1] of under 100 nM. Also, in assay [2], the EC50 was in the range of 1 to 5 nM and the “EC50 selectivity (SDMA assay)” value came to 256.

On to `CC(=O)N(C)N(Cc1nc2cccc(Cl)c2n1C)C(=O)c1ccc2nc(N)c3cnn(C)c3c2c1` [Example 438, N′-acetyl-4-amino-N-((7-chloro-1-methyl-1H-benzo[d]imidazol-2-yl)methyl)-N′,1-dimethyl-1H-pyrazolo[4,3-c]quinoline-8-carbohydrazide], for which, in assay [1], the CC50 was under 100 nM. Also, in assay [2], the EC50 is under 1 nM and the “EC50 selectivity (SDMA assay)” value is 141.

In assay [1], `Cn1ncc2c(N)nc3ccc(C(=O)N(Cc4ccc(Cl)cc4F)NC(=O)C4CC4)cc3c21` [Example 439, 4-amino-N-(4-chloro-2-fluorobenzyl)-N′-(cyclopropanecarbonyl)-1-methyl-1H-pyrazolo[4,3-c]quinoline-8-carbohydrazide] displayed a CC50 of under 100 nM. Also, in assay [2], the EC50 is under 1 nM and the “EC50 selectivity (SDMA assay)” value is 51.

These data come from patent US20240254118A1, “PRMT5 INHIBITORS AND USES THEREOF” (Gilead Sciences, Inc., priority 2022, published 2024).
